Source: patent US20220048888A1, “PYRIMIDINYL-HETEROARYLOXY-NAPHTHYL COMPOUNDS AND METHODS OF USE” (Genentech, Inc., priority 2018, published 2022)

Experiments:
cells = conditions: high levels; cited from earlier work
[1] = molecular target: T1, kinase domain of IRE1 alpha (Homo sapiens, UniProt O75460, D688N); assay: IRE1α TR-FRET competition binding assay; conditions: Kinase Tracer 236 0.1 μM; kinase dead IRE1 alpha KR construct
T1 construct: (KR, AA G547-L977, D688N); made in house; host or cells: Sf9 insect cells
Protocol: To determine the affinity of compound binding to the kinase domain of IRE1 alpha, a Time Resolved Fluorescence Resonance Energy Transfer (TR-FRET) competition assay was used. A His-tagged IRE1 alpha kinase dead construct containing the kinase and RNase domains (KR, AA G547-L977, D688N) was expressed in Sf9 insect cells. The purified protein (final concentration 0.006 OA micromolar) was pre-incubated with anti-His Europium labeled antibody (Life Technologies PV5596, final concentration 0.002 OA micromolar) for one hour at 4° C. in 1×TR-FRET Assay Buffer (50 mM HEPES, pH 7.5, 10 mM MgCl2, 0.083 mM Brij 35, 1 mM DTT, and 0.1% bovine gamma globulin) prior to addition to test compounds. A fluorescent labeled probe based on an ATP competitive inhibitor (Kinase Tracer 236, Life Technologies PV5592) is added to a final concentration of 0.1 μM (micromolar). Reactions were carried out for one hour at room temperature in a final volume of 20 μL (microliter) in 384 well white ProxiPlates (Perkin Elmer 6008289). Binding of the tracer to the IRE1 protein alpha was detected in an Envision instrument (PerkinElmer) equipped with a TRF laser option and a LANCE/Delfia Dual/Bias D400/D630 mirror (Ex 347 nm, 1st Em 665 nm, 2nd Em 615 nm).
Exemplary compounds depicted in Table 1 were tested in the IRE1α binding assays.

T1 sequence (O75460 547-977 D688N): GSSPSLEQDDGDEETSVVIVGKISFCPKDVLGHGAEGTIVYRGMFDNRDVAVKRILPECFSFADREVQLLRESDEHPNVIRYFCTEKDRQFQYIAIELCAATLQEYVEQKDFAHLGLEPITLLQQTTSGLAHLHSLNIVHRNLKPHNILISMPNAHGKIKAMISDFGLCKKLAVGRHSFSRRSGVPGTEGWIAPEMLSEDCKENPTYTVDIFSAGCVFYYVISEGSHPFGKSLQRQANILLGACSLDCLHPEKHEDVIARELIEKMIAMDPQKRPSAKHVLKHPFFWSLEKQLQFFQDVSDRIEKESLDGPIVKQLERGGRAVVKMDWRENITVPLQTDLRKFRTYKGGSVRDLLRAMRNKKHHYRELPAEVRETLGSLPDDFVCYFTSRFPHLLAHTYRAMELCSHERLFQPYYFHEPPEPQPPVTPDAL

For Cc1cc(=O)oc2c(C=O)c(O)ccc12 [Compound 4μ8C], the toxicity in cells (cells) is listed as “no measurable toxicity”.

CCCS(=O)(=O)Nc1cccc2c(Oc3nnccc3-c3ccnc(N[C@H]4CCCNC4)n3)c(C)ccc12 [Compound 3, (S)-N-(6-methyl-5-((4-(2-(piperidin-3-ylamino)pyrimidin-4-yl)pyridazin-3-yl)oxy)naphthalen-1-yl)propane-1-sulfonamide] gave an IC50 [1] of 12 nM.

With Cc1ccc2c(NS(=O)(=O)CCC(C)(F)F)c(F)ccc2c1Oc1nnccc1-c1ccnc(N[C@@H]2CNC[C@@H](F)C2)n1 [Compound 5, 3,3-difluoro-N-[2-fluoro-6-methyl-5-[4-[2-[[-(3S,5S)-5-fluoro-3-piperidyl]amino]pyrimidin-4-yl]pyridazin-3-yl]oxy-1-naphthyl]butane-1-sulfonamide] the IC50 [1] was 3.1 nM.

For CCCS(=O)(=O)Nc1c(F)ccc2c(Oc3ncncc3-c3ccnc(N[C@@H]4CNC[C@@H](F)C4)n3)c(C)ccc12 [Compound 4, N-(2-fluoro-5-((2-(((3S,5S)-5-fluoropiperidin-3-yl)amino)-[4,5′-bipyrimidin]-4′-yl)oxy)-6-methylnaphthalen-1-yl)propane-1-sulfonamide], the IC50 [1] was 3.3 nM.

Compound CCCS(=O)(=O)Nc1c(F)ccc2c(Oc3nnccc3-c3ccnc(N[C@@H]4CNC[C@@H](F)C4)n3)c(C)ccc12 [Compound 6, N-(2-fluoro-5-((4-(2-(((3S,5S)-5-fluoropiperidin-3-yl)amino)pyrimidin-4-yl)pyridazin-3-yl)oxy)-6-methylnaphthalen-1-yl)propane-1-sulfonamide] has an IC50 [1] of 7.1 nM.

For Cc1ccc2c(NS(=O)(=O)c3ccccc3Cl)cccc2c1Oc1nnccc1-c1ccnc(N[C@H]2CCCNC2)n1 [Compound 1, (S)-2-chloro-N-(6-methyl-5-((4-(2-(piperidin-3-ylamino)pyrimidin-4-yl)pyridazin-3-yl)oxy)naphthalen-1-yl)benzenesulfonamide], the IC50 [1] was 6.1 nM.

Cc1ccc2c(NC(=O)C3CC3)cccc2c1Oc1nnccc1-c1ccnc(N[C@H]2CCCNC2)n1 [Compound 2, (S)-N-(6-methyl-5-((4-(2-(piperidin-3-ylamino)pyrimidin-4-yl)pyridazin-3-yl)oxy)naphthalen-1-yl)cyclopropanecarboxamide] showed an IC50 [1] of 38 nM.
